The target in data set [1] is T1, Amyloid-beta precursor protein (Homo sapiens, UniProt P05067). Briefly: Inhibition of amyloid beta (1 to 42) (unknown origin) aggregation after 48 hrs by thioflavin T fluorescence assay.
In data set [2] the test system is SH-SY5Y. Nature of the data set: Cytotoxicity against human SH-SY5Y cells assessed as cell viability at 10 uM after 48 hrs by MTT assay. The class given is cell-based. (In general: Tetrazolium dyes change colour on reduction, which living cells bring about.)
The subject of data set [3] is SH-SY5Y. Briefly: Neuroprotective activity against amyloid beta (1 to 42)-induced cytotoxicity in human SH-SY5Y cells at 5 to 80 uM after 48 hrs by MTT assay. Type of data set: functional, cell-based.
For data set [4], the target named is T1, Amyloid-beta precursor protein. Briefly: Potency index, ratio of curcumin IC50 to compound IC50 for inhibition of amyloid beta (1 to 42) (unknown origin) aggregation.

Active and inactive are the calls of the source. The rule behind the calls is not given here.

T1 sequence (P05067 whole entry): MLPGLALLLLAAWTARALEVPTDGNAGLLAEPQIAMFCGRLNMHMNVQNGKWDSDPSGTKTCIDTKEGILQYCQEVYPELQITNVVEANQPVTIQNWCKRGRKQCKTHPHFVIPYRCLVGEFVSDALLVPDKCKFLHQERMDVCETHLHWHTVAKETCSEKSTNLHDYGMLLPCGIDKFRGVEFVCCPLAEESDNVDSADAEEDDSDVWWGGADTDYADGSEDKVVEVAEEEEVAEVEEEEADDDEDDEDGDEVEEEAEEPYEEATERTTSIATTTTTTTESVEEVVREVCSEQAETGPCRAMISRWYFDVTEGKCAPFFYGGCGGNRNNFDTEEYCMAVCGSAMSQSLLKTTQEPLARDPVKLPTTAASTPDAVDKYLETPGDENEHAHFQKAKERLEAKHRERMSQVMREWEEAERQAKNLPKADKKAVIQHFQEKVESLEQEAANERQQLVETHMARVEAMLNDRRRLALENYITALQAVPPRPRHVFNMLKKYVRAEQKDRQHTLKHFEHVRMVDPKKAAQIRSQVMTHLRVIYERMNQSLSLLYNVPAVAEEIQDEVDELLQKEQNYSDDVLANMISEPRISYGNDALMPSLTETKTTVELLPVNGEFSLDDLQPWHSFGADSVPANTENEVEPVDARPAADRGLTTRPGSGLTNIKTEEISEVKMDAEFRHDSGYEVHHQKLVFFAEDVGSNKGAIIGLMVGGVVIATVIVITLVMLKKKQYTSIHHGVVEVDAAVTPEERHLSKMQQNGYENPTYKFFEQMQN

In turn, `COc1cc(-c2cc(-c3c(O)cccc3O)[nH]n2)ccc1O` showed a half-maximal inhibitory concentration (IC50) in data set [1] of 4.3 µM. Further, in data set [2], the Activity entry is recorded as “Non-toxic”.
On to `Oc1ccc(-c2cc(-c3c(O)cccc3O)[nH]n2)cc1O`, for which the result in data set [3] was Active. In addition, in data set [4], the Ratio IC50 was found to be 3. The 50% inhibitory concentration (IC50) in data set [1] is 1.3 µM. In addition, the Activity entry in data set [2] is “Non-toxic”.
`COc1cc(-c2cc(-c3c(O)cccc3O)[nH]n2)cc(OC)c1O` came in with an IC50 in data set [1] of 2.9 µM. Also, the Activity result in data set [2] is “Non-toxic”.
On to `Oc1ccc(-c2cc(-c3c(O)cccc3O)[nH]n2)cc1`, for which half-maximal inhibition in data set [1] (IC50) required 15.8 µM.

One may read the IC50 as the concentration that gives 50% inhibition. The low end stands for greater potency, the high end for weaker potency.

These data come from ChEMBL document CHEMBL3593231, “3,5-Diarylpyrazole Derivatives Obtained by Ammonolysis of the Total Flavonoids from Chrysanthemum indicum Extract Show Potential for the Treatment of Alzheimer's Disease” (J Nat Prod, 2015).
